According to ChEMBL document CHEMBL1201862, “PubChem BioAssay data set” (2004):
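Briefly, cells in 96-well plates were exposed to five compound concentrations for 48 h, and endpoints were estimated by linear interpolation. The concentration for 50% growth inhibition is given as GI50.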 Calls of active or inactive are those of the source. No stated cut-off is given here; in the data, active = GI50 up to about 1.1 µM and inactive = higher.

Assays:
Test in all cases: NCI tumour cell line growth inhibition, 48 h
786-0 = system: 786-0
A498 = system: A498
A549 = system: A549
ACHN = system: ACHN
BT-549 = system: BT-549
CAKI-1 = system: CAKI-1
CCRF-CEM = system: CCRF-CEM
COLO 205 = system: COLO 205
DLD-1 = system: DLD-1
DMS-114 = system: DMS-114
DMS-273 = system: DMS-273
DU-145 = system: DU-145
EKVX = system: EKVX
HCC 2998 = system: HCC 2998
HCT-116 = system: HCT-116
HCT-15 = system: HCT-15
HL-60 = system: HL-60
HOP-18 = system: HOP-18
HOP-62 = system: HOP-62
HOP-92 = system: HOP-92
HT-29 = system: HT-29
Hs-578T = system: Hs-578T
IGROV-1 = system: IGROV-1
K562 = system: K562
KM-20L2 = system: KM-20L2
KM12 = system: KM12
LOX IMVI = system: LOX IMVI
LXFL 529 = system: LXFL 529
M14 = system: M14
MCF7 = system: MCF7
MDA-MB-231 = system: MDA-MB-231
MDA-MB-435 = system: MDA-MB-435
MDA-N = system: MDA-N
MOLT-4 = system: MOLT-4
Malme-3M = system: Malme-3M
NCI-H226 = system: NCI-H226
NCI-H23 = system: NCI-H23
NCI-H460 = system: NCI-H460
NCI-H522 = system: NCI-H522
NCI/ADR-RES = system: NCI/ADR-RES
OVCAR-3 = system: OVCAR-3
OVCAR-4 = system: OVCAR-4
OVCAR-5 = system: OVCAR-5
OVCAR-8 = system: OVCAR-8
PC-3 = system: PC-3
RPMI-8226 = system: RPMI-8226
RXF 393 = system: RXF 393
RXF 631 = system: RXF 631
SF-268 = system: SF-268
SF-295 = system: SF-295
SF-539 = system: SF-539
SK-MEL-28 = system: SK-MEL-28
SK-MEL-2 = system: SK-MEL-2
SK-MEL-5 = system: SK-MEL-5
SK-OV-3 = system: SK-OV-3
SN12C = system: SN12C
SNB-19 = system: SNB-19
SNB-75 = system: SNB-75
SNB-78 = system: SNB-78
SR = system: SR
SW-620 = system: SW-620
T47D = system: T47D
TK-10 = system: TK-10
U-251 = system: U-251
UACC-257 = system: UACC-257
UACC-62 = system: UACC-62
UO-31 = system: UO-31
XF498 = system: XF498

O=C1/C(=C/c2ccc(Cl)cc2)CCC1CN1CCOCC1 (stereo unspecified)
GI50 (786-0): 2.48 µM (inactive)
GI50 (A498): 19.6 µM (inactive)
GI50 (A549): 27.4 µM (inactive)
GI50 (ACHN): 11.2 µM (inactive)
GI50 (BT-549): 11.3 µM (inactive)
GI50 (CAKI-1): 4.37 µM (inactive)
GI50 (CCRF-CEM): 1.13 µM (inactive)
GI50 (COLO 205): 7.8 µM (inactive)
GI50 (DLD-1): 2.52 µM (inactive)
GI50 (DMS-114): 22.8 µM (inactive)
GI50 (DMS-273): 3.06 µM (inactive)
GI50 (DU-145): 11.5 µM (inactive)
GI50 (EKVX): 12.2 µM (inactive)
GI50 (HCC 2998): 9.75 µM (inactive)
GI50 (HCT-116): 4.2 µM (inactive)
GI50 (HCT-15): 3.83 µM
GI50 (HL-60): 0.836 µM (active)
GI50 (HOP-18): 13.9 µM (inactive)
GI50 (HOP-62): 16.1 µM (inactive)
GI50 (HOP-92): 3.96 µM (inactive)
GI50 (HT-29): 7.03 µM (inactive)
GI50 (Hs-578T): 4.31 µM (inactive)
GI50 (IGROV-1): 6.32 µM (inactive)
GI50 (K562): 1.86 µM (inactive)
GI50 (KM-20L2): 10.7 µM (inactive)
GI50 (KM12): 3.33 µM (inactive)
GI50 (LOX IMVI): 2.28 µM (inactive)
GI50 (LXFL 529): 2.58 µM (inactive)
GI50 (M14): 5.48 µM (inactive)
GI50 (MCF7): 3.77 µM (inactive)
GI50 (MDA-MB-231): 3.83 µM (inactive)
GI50 (MDA-MB-435): 4.6 µM (inactive)
GI50 (MDA-N): 6.46 µM (inactive)
GI50 (MOLT-4): 1.12 µM (inactive)
GI50 (Malme-3M): 6.52 µM (inactive)
GI50 (NCI-H226): 20.6 µM (inactive)
GI50 (NCI-H23): 9.14 µM (inactive)
GI50 (NCI-H460): 14.9 µM (inactive)
GI50 (NCI-H522): 1.81 µM (inactive)
GI50 (NCI/ADR-RES): 4.88 µM (inactive)
GI50 (OVCAR-3): 6.37 µM (inactive)
GI50 (OVCAR-4): 17.5 µM (inactive)
GI50 (OVCAR-5): 23.2 µM (inactive)
GI50 (OVCAR-8): 6.68 µM (inactive)
GI50 (PC-3): 6.19 µM (inactive)
GI50 (RPMI-8226): 0.818 µM (active)
GI50 (RXF 393): 3.76 µM (inactive)
GI50 (RXF 631): 8.36 µM (inactive)
GI50 (SF-268): 14.3 µM (inactive)
GI50 (SF-295): 17.5 µM (inactive)
GI50 (SF-539): 10.6 µM (inactive)
GI50 (SK-MEL-28): 8 µM (inactive)
GI50 (SK-MEL-2): 16.5 µM (inactive)
GI50 (SK-MEL-5): 12.5 µM (inactive)
GI50 (SK-OV-3): 18 µM (inactive)
GI50 (SN12C): 3.78 µM (inactive)
GI50 (SNB-19): 14.8 µM (inactive)
GI50 (SNB-75): 20.5 µM (inactive)
GI50 (SNB-78): 12.5 µM (inactive)
GI50 (SR): 0.687 µM (active)
GI50 (SW-620): 2.47 µM (inactive)
GI50 (T47D): 0.678 µM (active)
GI50 (TK-10): 7.36 µM (inactive)
GI50 (U-251): 15.9 µM (inactive)
GI50 (UACC-257): 8.73 µM (inactive)
GI50 (UACC-62): 5.51 µM (inactive)
GI50 (UO-31): 9.08 µM (inactive)
GI50 (XF498): 2.55 µM (inactive)

O=C1C=CC(=C(c2ccc(O)cc2)c2ccc(O)cc2)C=C1 [AURIN]
GI50 (786-0): 13.6 µM (inactive)
GI50 (A498): 17.7 µM (inactive)
GI50 (A549): 22 µM (inactive)
GI50 (ACHN): 15.2 µM (inactive)
GI50 (CAKI-1): 15.2 µM (inactive)
GI50 (CCRF-CEM): 2.39 µM (inactive)
GI50 (COLO 205): 17.7 µM (inactive)
GI50 (DLD-1): 10.3 µM (inactive)
GI50 (DMS-114): 2.4 µM (inactive)
GI50 (DMS-273): 6.78 µM (inactive)
GI50 (EKVX): 15.1 µM (inactive)
GI50 (HCC 2998): 14.4 µM (inactive)
GI50 (HCT-116): 10.8 µM (inactive)
GI50 (HCT-15): 14.4 µM
GI50 (HL-60): 2.86 µM (inactive)
GI50 (HOP-18): 16.4 µM (inactive)
GI50 (HOP-62): 20.2 µM (inactive)
GI50 (HOP-92): 2.07 µM (inactive)
GI50 (HT-29): 18.6 µM (inactive)
GI50 (IGROV-1): 13.6 µM (inactive)
GI50 (K562): 2.94 µM (inactive)
GI50 (KM-20L2): 16.5 µM (inactive)
GI50 (KM12): 12.8 µM (inactive)
GI50 (LOX IMVI): 10 µM (inactive)
GI50 (LXFL 529): 3.18 µM (inactive)
GI50 (M14): 13.3 µM (inactive)
GI50 (MOLT-4): 4.71 µM (inactive)
GI50 (Malme-3M): 12 µM (inactive)
GI50 (NCI-H226): 17.4 µM (inactive)
GI50 (NCI-H23): 8.57 µM (inactive)
GI50 (NCI-H460): 15.8 µM (inactive)
GI50 (NCI-H522): 10.1 µM (inactive)
GI50 (OVCAR-3): 7 µM (inactive)
GI50 (OVCAR-4): 14.4 µM (inactive)
GI50 (OVCAR-5): 18.2 µM (inactive)
GI50 (OVCAR-8): 12.7 µM (inactive)
GI50 (RPMI-8226): 3.85 µM (inactive)
GI50 (RXF 393): 5.07 µM (inactive)
GI50 (RXF 631): 15 µM (inactive)
GI50 (SF-268): 13.2 µM (inactive)
GI50 (SF-295): 12.5 µM (inactive)
GI50 (SF-539): 11.3 µM (inactive)
GI50 (SK-MEL-28): 12.1 µM (inactive)
GI50 (SK-MEL-2): 3.88 µM (inactive)
GI50 (SK-MEL-5): 7.06 µM (inactive)
GI50 (SK-OV-3): 17.9 µM (inactive)
GI50 (SN12C): 8.47 µM (inactive)
GI50 (SNB-19): 15.6 µM (inactive)
GI50 (SNB-75): 3.21 µM (inactive)
GI50 (SNB-78): 5.11 µM (inactive)
GI50 (SR): 2.36 µM (inactive)
GI50 (SW-620): 12.5 µM (inactive)
GI50 (TK-10): 19 µM (inactive)
GI50 (U-251): 5.82 µM (inactive)
GI50 (UACC-257): 9.68 µM (inactive)
GI50 (UACC-62): 3.91 µM (inactive)
GI50 (UO-31): 17 µM (inactive)
GI50 (XF498): 11.7 µM (inactive)
